Assay results from patent US20240238256A1, “NITAZOXANIDE IN THE TREATMENT OF SEPSIS” (GENFIT, priority 2021, published 2024).

Tests used:
[1] = tested on: polymicrobial sepsis induced by cecal ligation and puncture (CLP); test: CLP-induced polymicrobial sepsis, survival (Example 1); format: in vivo, C57BL6J male mice
Source text: Polymicrobial sepsis induced by cecal ligation and puncture (CLP) is characterized by dysregulated systemic inflammatory responses followed by immunosuppression. The CLP model in mice mimics the progression and features of human sepsis and is thus also useful to determine whether a drug would be efficient in the treatment of prevention of transition from sepsis to septic shock.
This study aims to investigate the efficacy of NTZ in CLP model in C57BL6J (BL6) male mice. The efficacy of the test compound was evaluated based on the survival rate of the animals within the study period.
C57BL6J male mice (supplier Janvier—France) at 9 weeks of age and weighing 23-25 g on arrival were anesthetized with 250 µL of xylazine/ketamine solution (6.75 mg/kg for ketamine (Imalgene, Boehringer, Germany) et 2.5 mg/kg for xylazine (Rompund 2%, Bayer, Germany)) by intraperitoneal route. A 1-1.5 cm abdominal midline incision was made, and the cecum was located and tightly ligated at half the distance between distal pole and the base of the cecum with 4-0 silk suture (mild grade). The caecum was punctured through-and-through once with a 21-gauge needle from mesenteric toward antimesenteric direction after medium ligation. A small amount of stool was extruded to ensure that the wounds were patent. Then the cecum was replaced in its original position within the abdomen, which was closed with sutures and wound clips. Mice were followed for body weight evolution and mortality rate until Day 7.
NTZ (Interchim, France) was administered by oral gavage at 50 mg/kg BID. NTZ treatment was initiated 3 days before CLP. The day of the surgery, NTZ was given once (50 mg/kg) 1 h before CLP and then a second time when animals have recovered from anesthesia (50 mg/kg). BID treatments was then pursued daily until the end of the study (n=15). Mice receiving NTZ vehicle (carboxymethylcellulose (#C4888, Sigma-Aldrich, Germany) BID served as controls (n=10). […]

[2] = tested on: caspase 3/7 activity in HepG2 cells; test: Staurosporine-induced apoptosis (caspase 3/7 activity) in HepG2 cells; format: cell-based, human; settings: for inhibition at 6 µM: Homo sapiens, HepG2, 6 μM
Experimental: The human hepatoblastoma-derived HepG2 cell line was cultured as described in Example 2. Caspase 3/7 activity was assessed in 1.5×10^4 cells plated in a 384-well plate (#781080, Greiner, France). After cell adherence (8 hours), cells were serum starved for 16 h with or without TZ, the active metabolite of NTZ. […] Caspase 3/7 activity was measured as previously described.

[3] = tested on: polymicrobial sepsis induced by CLP surgery; test: CLP-induced sepsis, survival and welfare scoring, NTZ with or without 3-day pretreatment (Example 4); format: in vivo, C57BL6J mice; settings: for mortality at 55 hours post-surgery: control group 60%; for mice survived sepsis at the end of the study: untreated 12.5%
Experimental: Polymicrobial sepsis was induced by CLP surgery in C57BL6J mice, as described in Example 1. NTZ was prepared as previously described and administrated per os at 100 mg/kg/day BID either starting 3 days before CLP (3 day pretreatment) or starting on the same day as the CLP surgery (without pretreatment) as shown in FIG. 5A. C57BI/6J male mice (8 week-old, Janvier, France) were divided into 3 groups of 24 mice each, after 7 days acclimation: • Group 1 received vehicle for 3 days before surgery and for 6 days after CLP surgery. • Group 2 received nitazoxanide (NTZ) for 3 days before surgery and then for 6 days after CLP surgery (pretreatment). • Group 3 received vehicle for 3 days before surgery and then NTZ for 6 days after CLP surgery (without pretreatment).
Treatments with NTZ were made twice daily at 9 am and […]. The day of the CLP surgery (Day 0), mice received NTZ or vehicle one hour before being anaesthetized (groups 2 and 3).
Welfare scoring of severity of murine sepsis model has been published to harmonize human end points and also to normalize grades observed between animals throughout experiments (Shrum B, Anantha R V, Xu S X et al. A robust scoring system to evaluate sepsis severity in an animal model. BMC Res Notes 2014; 7:233). Animals were individually observed, and changes were recorded and scored according to their intensity. Observations included changes in appearance, activity, response to stimuli, eyes opening, breathing quality and evolution of body weight. For each of these clinical signs, the severity was measured on a scale of 0 to 3. The evolution of the severity was followed and the mean score at each time point was calculated and plotted on graphs. Arbitrary, when mice die or are euthanized, they are scored at 4.

[4] = tested on: polymicrobial sepsis induced by CLP surgery; test: CLP-induced sepsis, survival and welfare scoring, NTZ before/after or only after surgery (Example 5); format: in vivo, C57BL6J mice; settings: for mortality at 55 hours post-surgery: control group 55%; for mice survived sepsis at the end of the study (day 7): untreated 20%
Experimental: Polymicrobial sepsis was induced by CLP surgery in C57BL6J mice, and NTZ was prepared and administrated per os, as described previously. […]
During the 6 days following the surgery, treatments with NTZ were made twice daily at 9 am and 5 pm at the dose of 100 mg/kg/day (p.o. BID) per mouse. Control mice received vehicle the same way to avoid any deviations between control and treated mice.

[5] = tested on: caspase 3/7 activity in HepG2 cells; test: TNFα-induced apoptosis (caspase 3/7 activity) in HepG2 cells; format: cell-based, human; settings: for increased caspase 3/7 activity: 24 hours
Experimental: In order to evaluate the effect of NTZ on human hepatocytes that undergo a cellular stress induced by cytokines, the human hepatoblastoma-derived HepG2 cell line (#85011430, ECACC, UK) was cultured with or without TZ, the active metabolite of NTZ, in high-glucose DMEM medium (#41965, Gibco, France) supplemented with 10% of fetal bovine serum (FBS, #10270, Gibco), 1% penicillin/streptomycin (#15140, Gibco), 1% sodium pyruvate (#11360, Gibco) and 1% MEM non-essential amino acids (#11140, Gibco) in a 5% CO2 incubator at 37° ° C. To evaluate caspase 3/7 activity, which is a surrogate marker of apoptosis, 5×10^4 cells were plated in a 96-well plate (Thermo Fischer, Germany). After cell adherence (8 hours), cells were pre-treated with a dose range of 0.3 to 3 μM of TZ (Interchim, France), in FBS-deprived cell culture medium for 16 h. Thereafter, tumor necrosis factor α (TNFα) (#C6378, Promocell, Germany) was added to the wells at the dose of 10 or 30 ng/ml for additional 24 hours. Staurosporine (10 μM) (#19-123MG, Sigma-Aldrich, Germany) was used as a reference to induce apoptosis. Cells were incubated with staurosporine 3 hours before Caspase activity measurement. Caspase 3/7 activity was measured using Caspase Glow™ 3/7 assay (#G8093, Promega, USA). Luminescence was measured using a Spark microplate reader (#30086376, Tecan, USA). The amount of luminescence (RLU) directly correlates with caspase 3/7 activity.

[6] = concomitant addition with staurosporine, without pretreatment
[7] = NTZ per os 100 mg/kg/day BID from day of CLP, without pretreatment
[8] = NTZ per os 100 mg/kg/day BID with 3-day pretreatment
[9] = NTZ BID T-1 h/T+3.5 h, 100 mg/kg/day p.o.
[10] = NTZ QD T+3.5 h (100 mg/kg) then 50 mg/kg BID p.o.

Molecule: C[C@@H](O)[C@H]1C(=O)N2C(C(=O)O)=C(S[C@@H]3CN[C@H](C(=O)Nc4cccc(C(=O)O)c4)C3)[C@H](C)[C@H]12 [Ertapenem]
- mice saved at the end of the study ([1]; Ertapenem 10 mg/kg intraperitoneal, 1 h before surgery and daily after CLP, Day 7): 10%

Molecule: CC(=O)Oc1ccccc1C(=O)Nc1ncc([N+](=O)[O-])s1 [NTZ, [2-[(5-nitro-1,3-thiazol-2-yl)carbamoyl]phenyl]ethanoate]
- mice survived 7 days after intervention ([1]; NTZ oral gavage 50 mg/kg BID, started 3 days before CLP): 33%
- mice still alive 3 days after surgery ([1]; NTZ oral gavage 50 mg/kg BID, started 3 days before CLP, vehicle group 100% mortality at 3 days): 47%
- inhibition at 6 µM [2, 6]: 78%
- mortality at 55 hours post-surgery [3, 7]: 17%
- mice survived sepsis at the end of the study [3, 7]: 58.3%
- mortality at 55 hours post-surgery [3, 8]: 25%
- mice survived sepsis at the end of the study [3, 8]: 45.8%
- mortality at 55 hours post-surgery [4, 9]: 5%
- mice survived sepsis at the end of the study (day 7) [4, 9]: 80%
- mortality at 55 hours post-surgery [4, 10]: 15%
- mice survived sepsis at the end of the study (day 7) [4, 10]: 70%

Molecule: O=C(Nc1ncc([N+](=O)[O-])s1)c1ccccc1O [TZ, tizoxanide]
- inhibition at 3 µM ([5]; Homo sapiens, 3 μM TZ, 16 h pretreatment, 10 ng/ml TNFα): 40%
- reduction of caspase activity ([5]; TZ pretreatment, higher TNFα dose (30 ng/ml)): this effect was confirmed with the higher TNFα dose
- inhibition at 6 µM ([2]; 16 h pretreatment, staurosporine 30 μM): 82%
- inhibition at 6 µM [2, 6]: 64%

Molecule: CN[C@@H]1C[C@H]2O[C@@](C)([C@@H]1OC)n1c3ccccc3c3c4c(c5c6ccccc6n2c5c31)C(=O)NC4 [staurosporine]
- increase of caspase 3/7 activity ([2]; staurosporine 30 μM, 4 hours): 11 fold

Molecule: TNFα
- increased caspase 3/7 activity ([5]; 10 ng/ml TNFα): 1.5 fold
- increased caspase 3/7 activity ([5]; 30 ng/ml TNFα): 1.7 fold
